Data taken from publication PMC4183613 (Journal of the American Chemical Society, 2014).

Experiments:
[1] = target: T1, PRC2 (Homo sapiens, UniProt Q15910); assay: PRC2 inhibition, scintillation methyltransferase assay with H3; type: biochemical; details: peptide 50 μM; substrate peptide 20 μM; 3H-SAM scintillation assay
[2] = target: T1, PRC2; type: biochemical; details: mononucleosome substrates; Figure 2C
[3] = target: polycomb repressor complex 2 (PRC2) (human (purified from HeLa cells)) (UniProt Q15910)
[4] = target: polycomb repressor complex 2 (PRC2) (human (purified from HeLa cells)) (UniProt Q15910); assay: methyltransferase inhibition kinetics
[5] = target: polycomb repressor complex 2 (PRC2) (human (purified from HeLa cells)) (UniProt Q15910); remark: listed apart in the source

T1 sequence (Q15910 whole entry): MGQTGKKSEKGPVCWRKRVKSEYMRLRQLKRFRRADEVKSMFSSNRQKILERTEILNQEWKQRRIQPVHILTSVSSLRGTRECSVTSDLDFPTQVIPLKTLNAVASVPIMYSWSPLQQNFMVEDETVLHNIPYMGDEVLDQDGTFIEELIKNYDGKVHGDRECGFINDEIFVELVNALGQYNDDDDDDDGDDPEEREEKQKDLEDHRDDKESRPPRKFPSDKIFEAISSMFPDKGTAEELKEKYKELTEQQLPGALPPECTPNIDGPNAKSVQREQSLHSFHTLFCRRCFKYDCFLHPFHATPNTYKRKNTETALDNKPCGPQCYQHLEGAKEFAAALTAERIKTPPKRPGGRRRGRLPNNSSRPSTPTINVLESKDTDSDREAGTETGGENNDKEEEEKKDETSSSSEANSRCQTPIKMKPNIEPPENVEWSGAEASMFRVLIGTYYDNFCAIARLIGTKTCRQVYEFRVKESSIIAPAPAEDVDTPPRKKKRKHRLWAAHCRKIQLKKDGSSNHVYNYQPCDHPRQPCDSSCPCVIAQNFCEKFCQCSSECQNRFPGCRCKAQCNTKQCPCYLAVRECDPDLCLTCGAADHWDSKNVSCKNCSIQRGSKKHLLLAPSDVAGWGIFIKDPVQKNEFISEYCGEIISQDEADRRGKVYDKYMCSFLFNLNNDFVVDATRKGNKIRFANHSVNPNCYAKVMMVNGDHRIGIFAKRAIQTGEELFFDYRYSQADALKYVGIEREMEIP
T1 sequence (O75530 whole entry partner): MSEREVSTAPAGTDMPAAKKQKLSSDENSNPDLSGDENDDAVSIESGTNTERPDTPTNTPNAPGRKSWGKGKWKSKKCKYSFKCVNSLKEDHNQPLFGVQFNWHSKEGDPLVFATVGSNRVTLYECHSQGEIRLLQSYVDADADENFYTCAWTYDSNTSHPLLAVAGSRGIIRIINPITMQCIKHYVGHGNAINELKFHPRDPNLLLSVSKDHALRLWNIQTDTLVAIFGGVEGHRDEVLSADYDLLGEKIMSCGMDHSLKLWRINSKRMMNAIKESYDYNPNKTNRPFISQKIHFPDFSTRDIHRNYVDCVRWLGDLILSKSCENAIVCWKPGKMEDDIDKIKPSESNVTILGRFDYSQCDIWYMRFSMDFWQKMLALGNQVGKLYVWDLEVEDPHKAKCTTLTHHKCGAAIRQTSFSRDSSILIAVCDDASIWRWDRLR
T1 sequence (Q15022 whole entry partner): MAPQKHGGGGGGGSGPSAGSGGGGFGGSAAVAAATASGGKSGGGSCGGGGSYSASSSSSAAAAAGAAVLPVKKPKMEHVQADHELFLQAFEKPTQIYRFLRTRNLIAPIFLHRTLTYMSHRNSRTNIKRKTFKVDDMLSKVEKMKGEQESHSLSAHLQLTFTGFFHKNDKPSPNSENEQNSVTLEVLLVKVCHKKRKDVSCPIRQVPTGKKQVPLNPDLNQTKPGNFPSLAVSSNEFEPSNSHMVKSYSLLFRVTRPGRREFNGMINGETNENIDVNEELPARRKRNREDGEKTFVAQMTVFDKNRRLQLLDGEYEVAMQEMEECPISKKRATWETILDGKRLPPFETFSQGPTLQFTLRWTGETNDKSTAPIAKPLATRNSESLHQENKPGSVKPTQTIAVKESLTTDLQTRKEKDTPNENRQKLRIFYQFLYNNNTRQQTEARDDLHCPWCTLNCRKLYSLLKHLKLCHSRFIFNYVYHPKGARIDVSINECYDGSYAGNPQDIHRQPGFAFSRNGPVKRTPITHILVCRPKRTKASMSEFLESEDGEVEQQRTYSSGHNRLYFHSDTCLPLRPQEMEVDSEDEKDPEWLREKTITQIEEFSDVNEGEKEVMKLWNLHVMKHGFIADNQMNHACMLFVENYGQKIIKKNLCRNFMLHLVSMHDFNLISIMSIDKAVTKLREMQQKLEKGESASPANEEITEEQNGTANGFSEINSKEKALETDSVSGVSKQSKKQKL
T1 sequence (Q09028 whole entry partner): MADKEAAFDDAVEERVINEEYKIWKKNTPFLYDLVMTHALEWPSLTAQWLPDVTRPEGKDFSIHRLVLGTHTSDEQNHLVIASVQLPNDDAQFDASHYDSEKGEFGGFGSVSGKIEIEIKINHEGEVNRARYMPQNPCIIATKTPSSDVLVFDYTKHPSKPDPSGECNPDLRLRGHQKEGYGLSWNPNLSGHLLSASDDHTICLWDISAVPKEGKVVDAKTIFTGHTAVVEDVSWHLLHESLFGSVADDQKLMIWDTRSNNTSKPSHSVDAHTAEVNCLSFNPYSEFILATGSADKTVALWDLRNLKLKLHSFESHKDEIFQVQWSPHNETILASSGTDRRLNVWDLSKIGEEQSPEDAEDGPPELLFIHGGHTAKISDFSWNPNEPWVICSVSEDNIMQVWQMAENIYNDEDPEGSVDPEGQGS

inhibition of PRC2 methyltransferase activity, in words [1] | Substance | further results
did not provide measurable inhibition | KAARXSAPSTGG [compound 8] | 
abolished inhibition | KAARXSAPSTGG [compound 17] | 
modest loss in activity | KAARXSAPSTGG [compound 5] | 

Further lines, the substance ahead of its results:

Substance | inhibition of PRC2 methyltransferase activity, in words [1] | further results
KAARXSAPSTGG [compound 16] | modest loss of inhibition | 
H3 1-10-GGG-H3 21-37 [compound 39] |  | inhibition by bitopic constructs, in words [2]: outperformed longer linkers
H3.3(23-34) peptide 18 (trifluoro-methionine at residue 27) |  | IC50 of inhibition of PRC2 methyltransferase activity (Figure S2A) [3]: 11 µM
H3K27M mutant mononucleosome (from UniProt P84243 1-136) (complex) |  | Ki [4]: 2.1 nM; IC50 of inhibition of PRC2 methylation of mononucleosome substrates [5]: 2.6 nM
KAARXSAPSTGG [compound 4] | did not provide measurable inhibition | 
KAARXSAPSTGG [compound 3] | complete inhibition | 
KAARXSAPSTGG [compound 7] | did not provide measurable inhibition | 
